Measured values: US4439614A, “5,6-Methano-5,6-dihydroretinoids” (SRI International, priority 1982, dated 1984)

Columns and labels:
[1] = test system: Hamster Tracheal Organ Culture; assay: Reversal of keratinization in hamster tracheal organ culture; assay type: cell-based
Protocol: (§1) The ODC assay measures a compound's effect on the prevention of the induction of ODC. The tracheal organ culture assay measures a compound's ability to reverse keratinization. For comparison purposes retinoic acid was also tested by these assays.
The tracheal organ culture assay is carried out as follows. Tracheas are taken from hamsters that are in very early stages of vitamin A deficiency and placed in organ culture. At the time of culture, the animals are still gaining weight; the tracheal epithelium is generally low columnar or cuboidal, with only occasional patches of squamous metaplasia. […] All tracheas are grown in medium containing no retinoid for the first 3 days. […] Culture medium is changed three times a week, and all of the remaining tracheas are harvested at the end of 10 days in culture. Tracheas are fixed in 10% buffered formalin and embedded in paraffin.

Ornithine Decarboxylase [2] = assay: Inhibition of induction of ornithine decarboxylase (ODC assay) by 12-O-tetradecanoylphorbol-13-acetate in mouse skin; assay type: in vivo; conditions: topical, 1 hour before TPA (17 nmol), CD-1 mice
Protocol: as §1
The ODC assay is carried out as follows. Female Charles River CD-1 mice from Charles River Breeding Laboratories, Wilmington, Mass., are used (age 7 to 9 weeks). The dorsal hair of the mice is shaved 1 to 2 days before testing, and only mice showing no hair regrowth are used. […] The mice are killed by cervical dislocation five hours after TPA treatment. Determinations are done in triplicate.
The epidermis is obtained from the sacrificed animals. To obtain sufficient material, the dorsal skins from 2 to 3 mice in each treatment group are pooled. The depilatory agent Nudit® (Helena Rubinstein, New York) is applied to the shaved area of the skin; after 5 minutes, it is washed off thoroughly with cold tap water. Then the skin is excised and plunged immediately into ice-cold water; it is then placed in a 55° C. water bath for 30 seconds and reimmersed in ice-cold water for at least another 30 seconds.
The supernatant fraction remaining after centrifugation of the homogenate at 10,000×g for 30 seconds at 0° C. is used for the enzyme assay. Enzyme activity is determined using the microassay for ODC as described by Verma and Boutwell to measure the release of ^14 CO2 from DL-[1-^14 C]-ornithine (58 mCi/mmol) after incubation with the 10,000×g supernatant. The incubations are carried out by decanting, with a Pasteur pipette, 100 μL of the supernatant containing 100 to 120 μg of protein into two or three 15-mL Corex tubes in a shaking water bath at 37° C.

Ornithine Decarboxylase [3] = conditions: prior-art epoxides; ODC induction in mouse epidermis by tumor-promoting phorbol esters; cited from earlier work

SMILES	Active Cultures (%) (reversal of keratinization) ([1]; conc 10^-8 M)	Active/Total Cultures (reversal of keratinization) ([1]; conc 10^-8 M)	Active Cultures (%) (reversal of keratinization) ([1]; conc 10^-9 M)	Active/Total Cultures (reversal of keratinization) ([1]; conc 10^-9 M)	Active Cultures (%) (reversal of keratinization) ([1]; conc 10^-10 M)	Active/Total Cultures (reversal of keratinization) ([1]; conc 10^-10 M)	Active Cultures (%) (reversal of keratinization) ([1]; conc 10^-11 M)	Active/Total Cultures (reversal of keratinization) ([1]; conc 10^-11 M)	% Inhibition of Control (inhibition of induction of ornithine decarboxylase by TPA in mouse skin) (Ornithine Decarboxylase [2]; dose 17 nmol) [%]	biological activity in the ornithine decarboxylase (ODC) assay (Ornithine Decarboxylase [3])	% Inhibition of Control (inhibition of induction of ornithine decarboxylase by TPA in mouse skin) (Ornithine Decarboxylase [2]; dose 1.7 nmol)
CCOC(=O)c1ccc(/C=C(C)/C=C/C23CC2(C)CCCC3(C)C)cc1 (stereo not drawn) [(E)-1-(4-carbethoxyphenyl)-2-methyl-4-(2,2,6-trimethylbicyclo[4.1.0]hept-1-yl)-1,3-butadiene]	100	7/7	77	10/13	29	4/14	29	2/7	80	–	–
CCOC(=O)c1ccc(/C=C(\C)C=CC23OC2(C)CCCC3(C)C)cc1 (stereo not drawn) [(E)-1-(4-carbethoxy)-2-methyl-4-(1,2-epoxy-2,6,6,-trimethylcyclohex-1-yl)-1,3-butadiene]	–	–	–	–	–	–	–	–	–	exhibited biological activity	–
CC(/C=C/C12OC1(C)CCCC2(C)C)=C\C=C\C(C)=C\C(=O)O (stereo not drawn) [5,6-epoxy-5,6-dihydroretinoic acid]	–	–	–	–	–	–	–	–	–	exhibited biological activity	–
CCOC(=O)/C=C(C)/C=C/C=C(C)/C=C/C12CC1(C)CCCC2(C)C (stereo not drawn) [ethyl (E)-5,6-methano-5,6-dihydroretinoate]	100	7/7	79	11/14	50	7/14	29	2/7	70	–	–
CC1=C(/C=C/C(C)=C/C=C/C(C)=C/C(=O)O)C(C)(C)CCC1 [(E)-retinoic acid, reference compound]	100	236/236	88	419/474	52	134/256	–	–	–	–	87-91%
